The text below walks through data of patent publication US11713338B2, “Cyclic peptides multimers targeting α-4-β-7 integrin” (priority 2016, dated 2023).

The structures appear in SMILES notation.

For assay [1], the target named is T1, recombinant integrin α4β7 (Homo sapiens, UniProt P13612+P26010, DEL724-798).
T1 construct: purchased R&D Systems 5397-A3-050
T1 sequence (P13612 34-970 limits assumed): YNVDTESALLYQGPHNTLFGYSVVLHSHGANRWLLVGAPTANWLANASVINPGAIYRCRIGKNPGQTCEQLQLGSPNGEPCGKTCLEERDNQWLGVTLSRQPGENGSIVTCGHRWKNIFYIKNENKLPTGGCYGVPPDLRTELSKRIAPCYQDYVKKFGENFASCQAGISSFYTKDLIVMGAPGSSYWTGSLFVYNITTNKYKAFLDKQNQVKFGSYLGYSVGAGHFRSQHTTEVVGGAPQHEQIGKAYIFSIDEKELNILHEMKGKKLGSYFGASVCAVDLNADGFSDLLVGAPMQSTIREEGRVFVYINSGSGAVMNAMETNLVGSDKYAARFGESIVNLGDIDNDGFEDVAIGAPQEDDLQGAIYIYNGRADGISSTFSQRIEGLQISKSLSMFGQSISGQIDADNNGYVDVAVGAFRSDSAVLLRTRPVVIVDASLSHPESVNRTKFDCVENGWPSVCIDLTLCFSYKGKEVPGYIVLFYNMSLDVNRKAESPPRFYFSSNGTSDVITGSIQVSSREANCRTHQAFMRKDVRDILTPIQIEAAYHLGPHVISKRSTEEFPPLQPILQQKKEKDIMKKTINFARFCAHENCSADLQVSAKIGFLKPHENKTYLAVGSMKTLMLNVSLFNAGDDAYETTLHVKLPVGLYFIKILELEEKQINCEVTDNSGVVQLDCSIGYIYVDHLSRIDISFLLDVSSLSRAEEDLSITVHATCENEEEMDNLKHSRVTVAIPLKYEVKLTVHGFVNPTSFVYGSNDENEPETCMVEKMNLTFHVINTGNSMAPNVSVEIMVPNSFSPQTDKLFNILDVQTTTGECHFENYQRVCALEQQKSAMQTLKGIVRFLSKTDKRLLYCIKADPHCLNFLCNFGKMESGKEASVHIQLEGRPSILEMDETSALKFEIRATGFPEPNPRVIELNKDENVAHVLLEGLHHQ
T1 sequence (P26010 20-723 limits assumed): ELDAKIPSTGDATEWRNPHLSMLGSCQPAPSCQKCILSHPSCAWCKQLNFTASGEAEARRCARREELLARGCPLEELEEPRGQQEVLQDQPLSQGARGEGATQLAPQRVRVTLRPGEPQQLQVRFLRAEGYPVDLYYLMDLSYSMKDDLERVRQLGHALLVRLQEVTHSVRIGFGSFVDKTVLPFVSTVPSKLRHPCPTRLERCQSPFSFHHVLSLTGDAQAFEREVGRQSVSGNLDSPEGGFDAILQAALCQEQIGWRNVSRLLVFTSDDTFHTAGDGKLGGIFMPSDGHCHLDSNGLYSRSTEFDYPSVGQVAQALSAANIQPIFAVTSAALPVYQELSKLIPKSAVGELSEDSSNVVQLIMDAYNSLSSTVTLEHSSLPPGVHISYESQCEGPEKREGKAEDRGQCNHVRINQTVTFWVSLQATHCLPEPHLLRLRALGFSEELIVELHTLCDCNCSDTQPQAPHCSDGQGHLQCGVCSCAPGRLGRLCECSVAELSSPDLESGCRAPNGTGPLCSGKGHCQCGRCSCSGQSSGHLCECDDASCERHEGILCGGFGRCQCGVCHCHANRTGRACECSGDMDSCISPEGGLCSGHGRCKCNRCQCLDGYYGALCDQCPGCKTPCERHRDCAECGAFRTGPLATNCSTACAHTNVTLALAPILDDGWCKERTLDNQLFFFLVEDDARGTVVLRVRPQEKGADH
Put plainly: Integrin α4β7—MAdCAM-1 ELISA competition assay. It counts as binding. To be noted: for ELISA Assay Ratio b1/b7: ratio of a4b1 to a4b7 ELISA IC50; for IC50: read-out: ELISA a4b7 Assay IC50. (In an ELISA, binding on a coated surface is turned into a signal by an enzyme label.)

The target in assay [2] is T2, recombinant integrin α4β1 (Homo sapiens, UniProt P05556+P13612).
T2 construct: purchased R&D Systems 5397-A3-050
T2 sequence (P05556 21-728 limits assumed, one chain of several): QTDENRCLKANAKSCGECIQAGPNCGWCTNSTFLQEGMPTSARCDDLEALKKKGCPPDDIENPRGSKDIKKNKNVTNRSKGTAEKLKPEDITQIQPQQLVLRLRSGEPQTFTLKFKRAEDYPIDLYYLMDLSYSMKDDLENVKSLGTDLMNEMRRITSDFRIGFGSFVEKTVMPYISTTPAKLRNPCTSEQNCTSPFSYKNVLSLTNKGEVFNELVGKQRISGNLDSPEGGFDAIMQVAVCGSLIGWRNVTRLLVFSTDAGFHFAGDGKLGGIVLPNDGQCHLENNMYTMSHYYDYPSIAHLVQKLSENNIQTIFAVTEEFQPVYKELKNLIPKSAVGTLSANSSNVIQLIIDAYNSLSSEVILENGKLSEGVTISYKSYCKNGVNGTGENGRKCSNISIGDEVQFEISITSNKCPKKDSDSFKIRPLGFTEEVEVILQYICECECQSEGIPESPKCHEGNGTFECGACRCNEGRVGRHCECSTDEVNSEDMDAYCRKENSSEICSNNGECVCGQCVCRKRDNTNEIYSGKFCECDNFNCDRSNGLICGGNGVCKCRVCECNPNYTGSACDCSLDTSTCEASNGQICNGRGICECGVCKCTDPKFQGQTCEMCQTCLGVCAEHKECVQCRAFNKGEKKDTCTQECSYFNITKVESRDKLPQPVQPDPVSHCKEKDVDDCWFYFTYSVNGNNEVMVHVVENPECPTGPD
The assay is described as follows: Integrin α4β1—VCAM-1 competition ELISA. It counts as binding. To be noted: for IC50: read-out: ELISA a4b1 Assay IC50. As for the experimental part: Integrin α4β1—VCAM-1 Competition ELISA
The plate was incubated at 4° C. overnight. […] The plate was then incubated for 1 hour at room temperature. The plate was washed three times with wash buffer (50 mM Tris, 100 mM NaCl, 1 mM MnCl2, 0.05% Tween). To each well, 50 μl of compound diluted in assay buffer was added by transfer from a compound serial dilution plate. […] The plate was incubated at room temperature with shaking (300 rpm) for 2 hours to reach binding equilibrium. Then the plate was washed three times in wash buffer and 100 μl anti-human IgG Fc specific-HRP (Abcam, Ab97225) diluted at 1:2000 in assay buffer was added to each well. The plate was incubated at room temperature for 1 hour under agitation.

What is called IC50 is the concentration needed to halve the response being measured. Take `CC(C)C[C@@H]1NC(=O)[C@H](Cc2c[nH]cn2)NC(=O)[C@@H]2CCCN2[C@H](C(=O)NC(C)(C)C)[C@@H](CSc2ccccc2)NC(=O)[C@H](C(C)C)NC(=O)[C@H](CC(=O)O)NC1=O` [Compound 2]: the “ELISA Assay Ratio b1/b7” value in assay [1] was 1.697. The IC50 in assay [2] stood at 185 nM.

Regarding `CC(C)C[C@@H]1NC(=O)[C@H](CCc2ccccc2)NC(=O)[C@@H]2CCCN2[C@H](C(=O)NC(C)(C)C)[C@H](C)NC(=O)[C@H]([C@@H](C)O)NC(=O)[C@H](CC(=O)O)NC1=O` [Compound 6], in assay [1], the “ELISA Assay Ratio b1/b7” value was 1.9 and the half-maximal inhibitory concentration (IC50) turned out to be 103 nM. Further, in assay [2], the IC50 came to 200 nM.

`CC(C)C[C@@H]1NC(=O)[C@H](CC2CCCCC2)NC(=O)[C@@H]2CCCN2[C@H](C(=O)NC(C)(C)C)[C@H](C)NC(=O)[C@H]([C@@H](C)O)NC(=O)[C@H](CC(=O)O)NC1=O` [Compound 7]: in assay [1], the “ELISA Assay Ratio b1/b7” value was 1.6 and the IC50 stood at 117 nM. Besides, in assay [2], the IC50 came out at 190 nM.

As to `CC(C)C[C@@H]1NC(=O)[C@H](Cc2cccc3ccccc23)NC(=O)[C@@H]2CCCN2[C@H](C(=O)NC(C)(C)C)[C@H](C)NC(=O)[C@H]([C@@H](C)O)NC(=O)[C@H](CC(=O)O)NC1=O` [Compound 9], the “ELISA Assay Ratio b1/b7” value in assay [1] came out at 1.7. The IC50 worked out at 61 nM in assay [1] and 106 nM in assay [2].

For `CC(C)C[C@@H]1NC(=O)[C@H](Cc2ccc3ccccc3c2)NC(=O)[C@@H]2CCCN2[C@H](C(=O)NC(C)(C)C)[C@H](C)NC(=O)[C@H]([C@@H](C)O)NC(=O)[C@H](CC(=O)O)NC1=O` [Compound 10], in assay [1], the “ELISA Assay Ratio b1/b7” value turned out to be 1.3 and the 50% inhibitory concentration (IC50) was 52 nM. Also, in assay [2], the IC50 was 70 nM.

With `CO[C@H](C)[C@@H]1NC(=O)[C@H](CC(=O)O)NC(=O)[C@H](CC(C)C)NC(=O)[C@H](Cc2ccccc2)NC(=O)[C@@H]2CCCN2[C@H](C(=O)NC(C)(C)C)[C@H](C)NC1=O` [Compound 40], in assay [1], the “ELISA Assay Ratio b1/b7” value came to 1.9 and the IC50 is 63 nM. The IC50 in assay [2] came out at 119 nM.

With `CCO[C@H](C)[C@@H]1NC(=O)[C@H](CC(=O)O)NC(=O)[C@H](CC(C)C)NC(=O)[C@H](Cc2ccccc2)NC(=O)[C@@H]2CCCN2[C@H](C(=O)NC(C)(C)C)[C@H](C)NC1=O` [Compound 41], in assay [2], the IC50 is 106 nM.

For `CC(C)C[C@@H]1NC(=O)[C@H](Cc2cccnc2)NC(=O)[C@@H]2C[C@@H](O)CN2[C@H](C(=O)NC(C)(C)C)[C@H](C)NC(=O)[C@H]([C@@H](C)O)NC(=O)[C@H](CC(=O)O)NC1=O` [Compound 44], in assay [2], the concentration for half-maximal inhibition (IC50) stood at 188 nM.

Consider `CC(C)C[C@@H]1NC(=O)[C@H](Cc2ccccc2)NC(=O)[C@@H]2C[C@@H](F)CN2[C@H](C(=O)NC(C)(C)C)[C@H](C)NC(=O)[C@H]([C@@H](C)O)NC(=O)[C@H](CC(=O)O)NC1=O` [Compound 45], for which the “ELISA Assay Ratio b1/b7” value in assay [1] came to 3.2. Further, the IC50 stood at 74 nM in assay [1] and 238 nM in assay [2].

Regarding `CC(C)C[C@@H]1NC(=O)[C@H](Cc2ccc(-c3ccccc3)cc2)NC(=O)[C@@H]2C[C@@H](F)CN2[C@H](C(=O)NC(C)(C)C)[C@H](C)NC(=O)[C@H]([C@@H](C)O)NC(=O)[C@H](CC(=O)O)NC1=O` [Compound 46], in assay [1], the “ELISA Assay Ratio b1/b7” value stood at 2.4 and the concentration for half-maximal inhibition (IC50) was 106 nM. Also, the IC50 in assay [2] was found to be 258 nM.

As for `CC(C)C[C@@H]1NC(=O)[C@H]2CCCCN2C(=O)[C@@H]2CCCN2[C@H](C(=O)NC(C)(C)C)[C@H](C)NC(=O)[C@H]([C@@H](C)O)NC(=O)[C@H](CC(=O)O)NC1=O` [Compound 51], in assay [1], the “ELISA Assay Ratio b1/b7” value came out at 3.3. Besides, the values for the concentration for half-maximal inhibition (IC50) in assay [1] and in assay [2] were 31 nM and 102 nM, respectively.

Regarding `CC(C)C[C@@H]1NC(=O)[C@H](Cc2ccc(O)cc2)NC(=O)[C@@H]2CCCN2[C@H](C(=O)NC(C)(C)C)[C@H](C)NC(=O)[C@H](C(C)(C)S)NC(=O)[C@H](CC(=O)O)NC1=O` [Compound 55], in assay [1], the “ELISA Assay Ratio b1/b7” value stood at 1.1 and the IC50 is 113 nM. The 50% inhibitory concentration (IC50) in assay [2] was 119 nM.

With `CC(C)C[C@@H]1NC(=O)[C@@H]2C[C@@H](OCc3ccccc3)CN2C(=O)[C@@H]2CCCN2[C@H](C(=O)NC(C)(C)C)[C@H](C)NC(=O)[C@H]([C@@H](C)O)NC(=O)[C@H](CC(=O)O)NC1=O` [Compound 57], in assay [1], the “ELISA Assay Ratio b1/b7” value turned out to be 2.5 and the IC50 came to 59 nM. Besides, the IC50 in assay [2] is 148 nM.

Regarding `CC(C)C[C@@H]1NC(=O)[C@@H](CCCN(C)C)NC(=O)[C@@H]2CCCN2[C@H](C(=O)NC(C)(C)C)[C@H](C)NC(=O)[C@H]([C@@H](C)O)NC(=O)[C@H](CC(=O)O)NC1=O` [Compound 83], in assay [1], the “ELISA Assay Ratio b1/b7” value is on record as 6.9 and the IC50 turned out to be 179 nM. Also, the IC50 in assay [2] came to 1230 nM.

As to `CC(C)C[C@@H]1NC(=O)C2(CCCC2)NC(=O)[C@@H]2CCCN2[C@H](C(=O)NC(C)(C)C)[C@H](C)NC(=O)[C@H]([C@@H](C)O)NC(=O)[C@H](CC(=O)O)NC1=O` [Compound 88], in assay [1], the “ELISA Assay Ratio b1/b7” value is 14.9 and the IC50 is 11 nM. For the same compound, in assay [2], the half-inhibitory concentration (IC50) was 166 nM.

For `CC(C)C[C@@H]1NC(=O)C2(Cc3ccccc3C2)NC(=O)[C@@H]2CCCN2[C@H](C(=O)NC(C)(C)C)[C@H](C)NC(=O)[C@H]([C@@H](C)O)NC(=O)[C@H](CC(=O)O)NC1=O` [Compound 89], in assay [1], the “ELISA Assay Ratio b1/b7” value is given as 14.4 and the IC50 is 16 nM. The IC50 in assay [2] was 232 nM.

Consider `CC(C)C[C@@H]1NC(=O)[C@H]2c3ccccc3CCN2C(=O)[C@@H]2CCCN2[C@H](C(=O)NC(C)(C)C)[C@H](C)NC(=O)[C@H]([C@@H](C)O)NC(=O)[C@H](CC(=O)O)NC1=O` [Compound 98], for which the IC50 in assay [2] is 58 nM.

Turning to `CC(C)C[C@@H]1NC(=O)[C@H]2CCCCN2C(=O)[C@H](Cc2ccc(O)cc2)N(C)C(=O)[C@@H]2CCCN2[C@H](C(=O)NC(C)(C)C)[C@H](C)NC(=O)[C@H]([C@@H](C)O)NC(=O)[C@H](CC(=O)O)NC1=O` [Compound 148], in assay [2], the IC50 is 105 nM.

Turning to `CC(C)C[C@@H]1NC(=O)C[C@H](CCCCN)NC(=O)[C@@H](CCCNC(=N)N)NC(=O)[C@@H]2CCCN2[C@H](C(=O)NC(C)(C)C)[C@H](C)NC(=O)[C@H]([C@@H](C)O)NC(=O)[C@H](CC(=O)O)NC1=O` [Compound 217], the IC50 in assay [2] turned out to be 1090 nM.

As for `CC(C)C[C@@H]1NC(=O)[C@@H]2CCN2C(=O)C[C@H](CCCCN)NC(=O)[C@@H]2CCCN2[C@H](C(=O)NC(C)(C)C)[C@H](C)NC(=O)[C@H]([C@@H](C)O)NC(=O)[C@H](CC(=O)O)NC1=O` [Compound 319], the half-maximal inhibitory concentration (IC50) in assay [2] was 309 nM.

Regarding `CC(C)C[C@@H]1NC(=O)C[C@H](CCCCN)N(C)C(=O)[C@H](CCCCNC(=O)c2cc(C(=O)O)cc(C(=O)NCCCC[C@@H]3NC(=O)[C@@H]4CCCN4[C@H](C(=O)NC(C)(C)C)[C@H](C)NC(=O)[C@H]([C@@H](C)O)NC(=O)[C@H](CC(=O)O)NC(=O)[C@H](CC(C)C)NC(=O)C[C@H](CCCCN)N(C)C3=O)c2)NC(=O)[C@@H]2CCCN2[C@H](C(=O)NC(C)(C)C)[C@H](C)NC(=O)[C@H]([C@@H](C)O)NC(=O)[C@H](CC(=O)O)NC1=O` [Compound 537], the “ELISA Assay Ratio β1/β7” value in assay [2] (ratio of ELISA IC50s, α4β1 over α4β7) is recorded as 0.4.
